Assay results taken from ChEMBL document CHEMBL5126654, “Cyclopiazonic Acid and Okaramine Analogues, Including Chlorinated Compounds, from Chrysosporium undulatum YT-1” (2022).
Converted amounts (≈) assume the structure as drawn. The source made the active and inactive calls. The rule behind the calls is not given here.

Tests used:
Bombyx mori = experiment: Insecticidal activity against third instar larvae of Bombyx mori (silkworm) measured after 24 hrs; type: functional
Helicoverpa armigera = experiment: Insecticidal activity against third instar larvae of Helicoverpa armigera (cotton bollworms) measured after 24 hrs; type: functional
Bacillus subtilis = experiment: Antibacterial activity against Bacillus subtilis measured after 24 hrs by agar diffusion method; type: functional
PC12D = experiment: Neuroprotective activity in rat PC12 cells assessed as reduction in 6-OHDA-induced cell death at 40 uM pretreated for 30 mins followed by 6-OHDA stimulation and measured after 24 hrs by MTT assay; type: functional, cell-based; conditions: time 24.5 hrs

Structure (SMILES) | LD50 (Bombyx mori) [mg/kg] | LD50 (Helicoverpa armigera) [mg/kg] | MIC (Bacillus subtilis) [µg/mL] | Activity (PC12D)
CO[C@@H]1[C@]2(O)c3cc(O)ccc3N3C(C)(C)[C@H](CO)[C@]32N2C(=O)/C3=C/c4c([nH]c5ccccc45)C(C)(C)/C=C\N3C(=O)[C@]12O | > 100 | > 100 |  | 
CO[C@@H]1[C@]2(O)c3cc(O)ccc3N3C(C)(C)[C@H](C)[C@]32N2C(=O)/C3=C/c4c([nH]c5ccccc45)C(C)(C)/C=C\N3C(=O)[C@]12O | 0.07 | < 0.01 |  | 
C/C(O)=C1\C(=O)[C@@H]2[C@H]3c4c[nH]c5cc(Cl)cc(c45)[C@@H](O)[C@H]3C(C)(C)N2C1=O |  |  | 6.3 (≈ 16.3 µM) | 
CO[C@@H]1[C@]2(O)c3cc(O)ccc3N3C(C)(C)[C@H](CO)[C@]32N2C(=O)/C3=C/c4c([nH]c5cc(Cl)ccc45)C(C)(C)/C=C\N3C(=O)[C@]12O | > 100 | > 100 |  | 
CO[C@@H]1[C@]2(O)c3cccc(O)c3N3C(C)(C)[C@H](C)[C@]32N2C(=O)/C3=C/c4c([nH]c5cc(Cl)ccc45)C(C)(C)/C=C\N3C(=O)[C@]12O | 7.56 | 4.13 |  | 
CC(NCCc1ccccc1)=C1C(=O)[C@@H]2[C@H]3c4c[nH]c5cccc(c45)C[C@H]3C(C)(C)N2C1=O (mixture of isomers) |  |  |  | Active
CO[C@@H]1[C@]2(O)c3cc(O)ccc3N3C(C)(C)[C@H](C)[C@]32N2C(=O)/C3=C/c4c([nH]c5cc(Cl)ccc45)C(C)(C)/C=C\N3C(=O)[C@]12O | 0.61 | 0.06 |  | 
C=C(C)[C@H]1Cc2c(ccc3c2O[C@@H]2COc4cc(OC)c(OC)cc4[C@@H]2C3=O)O1 [ROTENONE] | 37.8 | 5.79 |  | 
